# Values quoted from earlier work, collected in patent publication US20110015074A1, “STABILIZED HERBICIDAL FORMULATIONS AND METHODS OF USE” (priority 2009, published 2011).
# Conditions: sunlight (UV), after the end of the second year of storage period
compound,measurement,value
"CCSC(C)CC1CC(=O)C(/C(CC)=N/OC/C=C/Cl)=C(O)C1 (racemic) [clethodim (technical), (±)-2-[(E)-1-[(E)-3-Chloroallyloxyimino]propyl]-5-[2-(ethylthio)propyl]-3-hydroxycyclohex-2-enone]",loss or degradation of clethodim,42.33 % active ingredient
